Experimental data reported in patent US6159988A, “Arylcycloalkyl derivatives, their production and their use” (Hoeschst Aktiengesellschaft, priority 1992, dated 2000).
Structures can show the parent of a compound that is named as a salt.

Tests used:
[1] = system: KC1 induced contraction of guinea pig ileum; test: KCl induced contraction of guinea pig ileum (specificity); format: cell-based; conditions: up to 7.11×10^-5 M
Description: (§1) The specificity of leukotriene antagonism was determined by inducing contraction of guinea pig ileum with agonists like histamine, acetylcholine and KC1. Compounds having specific effect against lipoxygenase products induced contraction normally would not show any inhibition of histamine, acetylcholine and KC1 induced contraction.

[2] = system: Cotton Pellet Granuloma in Rats; test: Inhibition of carrageenin cotton pellet granuloma in rats; format: in vivo, rat (Wistar); conditions: p.o. × 5
Description: The implantation of carrageenin impregnated cotton pellets results in production of large, well-defined granuloma which are easily dissected. The potency of the compounds are assessed by measuring the reduction in granuloma tissue formation.
Cotton wool pellets weighing 40 mg were used for sterilization.
Pellets were dried overnight under a lamp. The pellets in the weight range of 42-44 mg were selected.
Rats (in groups of 6, male or female, Charles River, Wistar, weighing 140-150 g) were anaesthetized with ether. The back was shaved and cleaned; swabbed with alcohol and one centimeter incision was made in the lower midback. A small channel was made bilaterally using a blunt forceps and one cotton pellet placed in each channel. Air from the incision was removed and the wound was stitched. […] Three hours after the administration of the last dose on day 7, animals were sacrificed. The pellets were removed by cutting the skin along the dorsal midline and peeling the skin away from the bodywall in both lateral directions. The pellets were weighed and then placed in drying oven at 140° C. overnight. The dry weights were then recorded and the amount of granuloma was assessed by subtracting the original pellet weight from wet weights and dry weights. The data was evaluated using the difference of left and right weights (cf. Table 4).

[3] = system: isolated guinea pig ileum precontracted with leukotrienes; test: Relaxation of leukotriene induced contraction of isolated guinea pig ileum; format: cell-based; conditions: Cavia porcellus
Description: Guinea pigs of either sex weighing 300-350 g were sensitized with a suspension of aluminum hydroxide gel and egg albumin. After 21 days, each animal was exposed to 0.5% egg albumin aerosol in an air tight perspex chamber and only those animals which developed allergic bronchoconstriction were selected for further experiment.
The animals were tested for one week after antigenic exposure and then sacrificed by head blow and cutting carotid arteries. The lung was quickly removed and placed in aerated Tyrode solution kept at 37° C. The lung was cut into uniform strips and each strip was placed in an organ bath containing isolated guinea pig ileum connected to potentiometric recorder through isotonic transducer in the presence of Tyrode solution kept at 37° C. After a stabilizing period of 30 minutes, the reactivity of ileum to histamine was confirmed by challenging it with 100 ng-200 ng/ml of histamine. The perfusion fluid was then replaced by Tyrode solution containing Atropine (10^-7 M), Mepyramine maleate (10^-7 M) and methylsergide (10^-7 M). Three minutes later, lung strip was challenged by egg albumin (25 μg/ml) and release of leukotrienes was monitored in terms of slow contraction of ileum. The ileum was allowed to contract for 10-15 minutes when a plateau was achieved. The test compound (compound 4 of Table 1) was then added to observe the relaxation.
as §1

[4] = system: microanaphylactic shock of guinea pigs; test: Inhibition of micro-anaphylactic shock of guinea pigs (egg albumin aerosol); format: in vivo, guinea pig; conditions: 20 mg/kg^-1, i.p. + pretreatment with indomethacin, 10 mg/kg
Source text: Guinea pigs of either sex weighing between 300-350 g were sensitized with egg albumin absorbed over Al(OH)3 gel. After 21 days of sensitization, each animal was placed in an air tight perspex chamber and exposed to 0.5% egg albumin aerosol through EEL atomizer. EEL atomizer was operated by connecting it to pressurized air through a water trap and dial type sphygmomanometer at the constant air pressure of 180 mm Hg. The time of onset of asthma in seconds and recovery period in minutes was noted.
Each animal was exposed to egg albumin aerosol at an interval of 15 days to maintain the consistency of the reactivity of animals to the antigen. After 3 such control exposures, animals were subjected to drug treatment. On the day of the experiment one group of Guinea pigs consisting of 10 animals was kept as control exposing them only to 0.5% egg albumin aerosol. […] Fifteen mins. after the administration of the test compound the animals were exposed to 0.5% egg albumin aerosol.

[5] = system: histamine induced contraction of guinea pig ileum; test: Histamine induced contraction of guinea pig ileum (specificity); format: cell-based; conditions: up to 7.11×10^-5 M
Description: as §1

IL-1 alpha = test: Inhibition of LPS stimulated IL-1 alpha release from human mononuclear cells; format: cell-based; conditions: 18 hours, 37° C., read-out: Approx. IC50 (LPS stimulated IL-1 alpha)
Description: (§2) 10 ml of human blood were carefully drawn from the antecubital vein using a syringe containing 1 ml of a solution of 3.8% sodium citrate. After dilution with 10 ml PM 16 (Serva, Heidelberg, FRG) and underlayering with 15 ml Lymphoprep® (Molter GmbH), the sample was centrifuged at 400×g for 40 min at 20° C. The mononuclear cells forming a white ring between lymphoprep and plasma were carefully aspirated by a syringe, diluted 1:1 with PM 16 and centrifuged again at 400×g for 10 min. […] was washed with 10 ml RPMI 1640 (Gibco, Berlin, FRG), containing additionally 300 mg/l L-glutamine, 25 mmol/l […] HEPES, 100 μg/ml streptomycin and 100 μg/ml penicillin. Finally, using a Coulter counter IT, the cell suspension was adjusted to 5×10^6 cells/ml. The cells consist of approx. 90% lymphocytes and 10% monocytes.
10 μl DMSO/water (1:10, v/v), containing the test compound, was added to 480 μl of a suspension, containing 5×10^6 mononuclear cells. The synthesis of IL-1 was stimulated by the addition of 10 μl DSMO/water (1:10, v/v), containing 0,5 μg LPS (Salmonella abortus equi, Sigma). After incubation at 37° C. for 18 hours, the samples were cooled to 0° C. and centrifuged for 1 min. in a table centrifuge. […]

[6] = system: experimental allergic encephalomyelitis (EAE) in guinea pigs; test: Experimental allergic encephalomyelitis (EAE) in guinea pigs; format: in vivo, guinea pig; conditions: 3 mg/kg orally once daily for 10 days
Source text: This method permits the evaluation of the potential of the test compound in preventing the development of an autoimmune disorder leading to demyelination in the guinea pigs which can be equated to multiple sclerosis disease in humans. EAE is a reproducible chronic inflammatory autoimmune disease of the central nervous system in which an animal is immunized with either a homologous or heterologous extract of the whole brain and spinal cord, which contains the basic myelin protein together with Freund's Complete Adjuvant (FCA). A pathological condition would set in during ten to twenty days following immunization, which is characterized by weight loss, abnormal gait, mild to severe ataxia, paraparesis and moribund state leading to death. The potential of the test compounds to prevent this autoimmune condition was evaluated by observing the severity of the disease and mortality in comparison with untreated and hydrocortisone (standard drug) treated animals.
Guinea pigs (200-300 g) were randomly distributed into groups of 10 each after receiving 0.075 ml of it brain and spinal cord extract in FCA intradermally on the back and 0.050 ml intrapedally in one hind paw. Compound 9 of Table 2 was administered orally at 3 mg/kg once daily for 10 days. The standard compound was administered 100 mg/kg p.o. once daily for 10 days. The weights of the animals were noted every day. Eight days after the induction of the disease, the animals were rated regularly for the severity of the disease and mortality was monitored.

IL-1 = IL-1 release inhibition (Table 2); format: cell-based, human; conditions: Homo sapiens; 5 μM; read-out: IL-1 Rel. Inhib.
Description: as §2
10 μl DMSO/water (1:10, v/v), containing the test compound, was added to 480 μl of a suspension, containing 5×10^6 mononuclear cells. The synthesis of IL-1 was stimulated by the addition of 10 μl DSMO/water (1:10, v/v), containing 0,5 μg LPS (Salmonella abortus equi, Sigma). After incubation at 37° C. for 18 hours, the samples were cooled to 0° C. and centrifuged for 1 min. in a table centrifuge. 25 μl aliquots of the supernatant were assayed for IL-1 alpha activity using a commercially available 125-J-IL-1-alpha radioimmunoassay Kit (Amersham/UK), and for IL-1 beta in a similar way using the specific test kit. Control experiments were performed as described without test compound, or with cycloheximide as a test compound.

[7] = system: adjuvant arthritis in rats; test: Adjuvant-induced arthritis in rats; format: in vivo, rat (female Wistar); conditions: 3, 10, and 30 mg/kg orally once a day, 12 days
[8] = Oral bioavailability in the rat; format: in vivo; conditions: 10 mg/kg oral (vs 1 mg/kg intravenous), plasma
Description: (§3) Since the test compound produced significant activity in the adjuvant arthritic rats and experimental allergic encephalomyelitic guinea pigs when administered orally, the extent of oral bioavailability of this compound was estimated in rats and dogs. Compound 9 of Table 2 was administered intravenously (1 mg/kg) to conscious rats and dogs and blood samples were collected at various time points after administration. Similarly, the test compound was also administered orally (10 mg/kg) to a different set of rats and dogs and blood samples were collected at various time points. The blood samples were extracted and were analyzed by HPLC to obtain the concentration of compound 9 in the plasma. The plasma levels obtained after intravenous and oral administration were plotted against time, areas under the curves were calculated and percent bioavailability were estimated.

[9] = Oral bioavailability in the dog; format: in vivo; conditions: 10 mg/kg oral (vs 1 mg/kg intravenous), plasma
Description: as §3

In the case of `COc1cc(OC)c([C@@H]2CCCC[C@H]2O)c(O)c1C(=O)/C=C/c1ccc(Cl)cc1` (relative stereo) [Compound 4 of Table 1, trans-(±)-2-[4,6-Dimethoxy-2-hydroxy-3-(3-(4-chlorophenyl)prop-2-(E)-enoyl)]phenylcyclohexanol], the “Effect on KC1 induced contraction” value [1] is reported as “No effect”, the “% Inhibition of granuloma, Dry wt.” value ([2]; 10 mg/kg) is reported as 35.6% and the “% Inhibition of granuloma, Wet wt.” value ([2]; 10 mg/kg) is reported as 21%. For the same compound, the “% Inhibition of granuloma, Dry wt.” value ([2]; 20 mg/kg) was 89.0%, the “% Inhibition of granuloma, Wet wt.” value ([2]; 20 mg/kg) was 54% and the “% Inhibition of granuloma, Dry wt.” value ([2]; 30 mg/kg) was 82.8%. For the same compound, the “% Inhibition of granuloma, Wet wt.” value ([2]; 30 mg/kg) was 64%, the inhibition at 1.2 µM ([3]; Conc. 1.2 × 10^-6 M) was 36.8% and the inhibition at 1.68 µM ([3]; Conc. 1.68 × 10^-6 M) was 50.5%. It also gave an inhibition at 2.4 µM ([3]; Conc. 2.4 × 10^-6 M) of 62.4%, an inhibition at 7.2 µM ([3]; Conc. 7.2 × 10^-6 M) of 68% and an IC50 ([3]; relaxation of leukotriene precontracted ileum, read-out: App. IC50) of 1680 nM. For the same compound, the Recovery period ([4]; control group 37 + 3.4) was 77.6 min, the Onset Time ([4]; control group 75 + 8.7) was 149 s and the “Effect on histamine induced contraction” value [5] was “No effect”. For the same compound, the IC50 (IL-1 alpha) was 200 to 300 nM.
In the case of `COc1cc(OC)c([C@@H]2CCCC[C@H]2OC(=O)[C@H](C)N)c(O)c1C(=O)/C=C/c1cccc(Br)c1` [Compound 9 of Table 2, trans-(-)-2-[4,6-dimethoxy-2-hydroxy-3-(3-(3-bromophenyl)prop-2-(E)-enoyl)phenyl]cyclohexyl-2-(S)-amino propanoate hydrochloride], the “reduction in the mortality rate” value [6] is reported as 45%, the “clinical symptoms (clinical grading)” value ([6]; compared to untreated group) is reported as “significantly reduced” and the inhibition at 5 µM (IL-1) is reported as 55%. For the same compound, the “reduction in the uninjected paw volumes” value [7] was “significant and dose dependent reduction”, the bioavailability [8] was 46% and the bioavailability [9] was 73%.
